Test results from patent publication US20220338463A1, “METHOD OF PRODUCING LYOPHILIZED CELLS” (LONZA LTD, priority 2019, published 2022).

What was measured:
[1] = test system: SK-N-AS cells; assay: ALAMARBLUE assay of plated cells after freeze-thaw of suspended cells; format: cell-based, Human; details: for cell viability after freeze-thawing on decreasing the concentration of PBS: hypotonic conditions, FIG. 11
Protocol: The cells were plated on a 96-well plate in a density of 2.25×10^5 cells/cm^2 and diluted with medium to the final volume of 200 μL inside the well. The cells were then incubated overnight at 37° C. and 5% CO2 so they attached to the wells. Cells were stained with 10 μL ALAMARBLUE® reagent per 100 μL of medium in the well and incubated for 4 h. Same procedure was applied for a blank, where 200 μL of medium was pipetted into the well. After that, 100 μL of solution above the cells was pipetted into a black non-transparent 96-well plate and fluorescence was measured with SPECTRAMAX® plate reader (excitation λ=550 nm, emission λ=590 nm).
(§1) Formulations were prepared in 50 mL Falcon tubes and subsequently sterile filtered under the bench with 0.22 μm syringe filter and a syringe. Sterile formulations were then stored at 2-8° C. until further use. 0.5 mL of cell suspension in either PBS or medium at a concentration of 20*10^6 cells/mL was mixed with 0.5 mL of pre-warmed sterile formulation. Vials were then stoppered and stored in a −80° C. freezer for minimum overnight.
(§2) Subsequently, the vials were taken from the −80° C. freezer and rapidly thawed in the water bath at 37° C. Immediately after thawing, 0.1 mL of cell suspension was 2× diluted with medium and counted with NucleoCounter to obtain cell viability [%] and concentration inside the vial. Suspension was then plated on a 96-well plate so the cell density was 2.25×10^5 cells/cm^2 (growth area in one well is 0.32 cm^2). Calculation of the volume (V) of cell suspension is according to following equation: […]
Calculated volume was diluted inside of the well with cell growth medium, so that the final volume was 0.2 mL. 96-well plate with samples was incubated overnight in the incubator and ALAMARBLUE® assay was performed the morning after (if not stated differently in the results section).
ALAMARBLUE® on the other hand, contains a reagent called resazurin. This is a non-toxic, blue, weakly fluorescent dye, which can permeate cell membranes. Resazurin undergoes a metabolic reduction inside of the cell to a form called resorufin, which is pink and highly fluorescent. The intensity of fluorescence is proportional to the amount of cells that are able to metabolize resazurin and are thus considered viable.

[2] = test system: SK-N-AS cells; assay: DAPI/acridine orange viability (NUCLEOCOUNTER) directly after freeze-thaw; format: cell-based, Human; details: directly after thawing, FIG. 6
Protocol: 200 μL of cell suspension was pipetted into 1.5 mL Eppendorf tube and diluted with medium. Diluted suspension was then pipetted with VIAL-[…]™ and inserted into the NUCLEOCOUNTER® for measurement.
as §1, §2
Next, we compared two methods for determining viability and noticed a large discrepancy in obtained results (FIG. 5 and FIG. 6). The reason for this is the difference in underlying principles of viability assessment of both methods. As previously, DAPI/acridine orange staining is performed using NUCLEOCOUNTER®, which is an integrated fluorescence microscope with dual fluorescence channels. One is for staining with acridine orange and the other with DAPI dye. They both bind to DNA and label cellular nuclei with high specificity. Acridine orange can permeate the cell membrane and is used for cell detection, while DAPI cannot permeate the membrane and binds only to nuclei of dead cells with disrupted membrane. Thus, the cell viability according to the DAPI/acridine orange method, is mostly based on the integrity of cell membranes. Dyes are fluorescent and therefore visible when using fluorescence filters in microscope, while cell debris and other particles without DNA are not visible. The software then identifies and analyses the individual cells (even within smaller aggregates) and calculates the viability, by comparing the ratio of signal with Acridine Orange and DAPI staining (according to equation below).

[3] = Freeze drying, visual inspection of lyophilization cake; format: physicochemical; details: 1M propylene glycol and 0.1M trehalose formulation; FIG. 21B
Protocol: Freeze drying was performed with the SP Scientific's LyoStar 3 pilot scale freeze dryer with 0.4 m^2 of shelf surface area. Vials were filled and loaded on a tray under the biosafety bench and then loaded in the freeze dryer. Vials were left on the tray inside the lyophilizer, to avoid any spillage of biomaterial inside the chamber in case of a vial breakage.
Employed conservative lyophilization programs (Table 3 and Table 4) included freezing and primary drying steps. Since it is known from literature, that complete elimination of water and higher temperatures employed during secondary drying negatively impact the cell survival during process, the step was omitted. The product temperature was monitored by including a thermocouple inside the vial, so that its tip touched the bottom of the vial. After unloading of the vials from the lyophilizer, they were visually inspected.

SMILES: C[S+](C)[O-] [DMSO, Dimethyl Sulfoxide, reference compound]
- cell viability compared to the untreated control ([1]; 5% DMSO, internal data): over 80%

SMILES: OCCO [ethylene glycol, Ethylene glycol]
- densities of plated cells after thawing, 1M ethylene glycol vs 1M propylene glycol ([1]; 1M, FIG. 8B): not significantly different
- cell density after thawing vs propylene glycol, ANOVA and t-test ([1]; formulation in medium, P<0.05): significantly worse than propylene glycol
- cell viability after freeze-thawing on decreasing the concentration of PBS [1]: decrease in cell viability

SMILES: OCC(O)CO [glycerol, Glycerol]
- cell density after freeze-thaw compared with 5% DMSO formulation in medium ([1]; glycerol formulation in medium, FIG. 8A): not significantly worse than 5% DMSO formulation

SMILES: CC(O)CO (centres unmarked) [propylene glycol, Propylene glycol]
- viability after FT of cells (DAPI/acridine testing) ([2]; 0.1M propylene glycol): around 50%
- viability after FT of cells (DAPI/acridine testing) ([2]; 0.2M propylene glycol): around 50%
- viability after FT of cells (DAPI/acridine testing) ([2]; 1M propylene glycol): ~100%
- viability after FT of cells (DAPI/acridine testing) ([2]; 2M propylene glycol): ~100%
- optimisation of propylene glycol concentration, viability by ALAMARBLUE ([1]; 1M concentration, FIG. 7B): most favourable
- relative viability to control (untreated cells) after freeze thawing ([1]; 5% (v/v) in cell medium, FIG. 7A): efficient in protecting the cells compared to other tested excipients
- cell viability of treated cells relative to untreated cells (metabolic assay) ([1]; after FT, compared with DAPI/acridine results, FIG. 5): much lower cell viability
- cell viability after freeze-thawing on decreasing the concentration of PBS [1]: decrease in cell viability
- appearance of lyophilizate [3]: remained in liquid form
